Like-named read-outs stand apart in the source and are kept apart here.
Tests used:
Type in all cases: physicochemical
[1] = Equivalent alkane carbon number (EACN) of co-oils
Excerpt: (§1) Formulating microemulsions requires the combination of variables that will provide a middle phase microemulsion. Salager et al. (1979) proposed a semi empirical equation that relates the different formulation variables: Ln(S*)=k(EACN)+f(A)−σ+αTΔT Where S* is an optimum salinity, or electrolyte concentration; k is a constant, normally, between 0.1 to 0.17, and EACN is the equivalent alkane carbon number for nonlinear hydrocarbon (e.g. triglycerides). Although preferred salinity concentrations may exist, the inventors contemplate that salinity levels can and will vary. For example, a person of ordinary skill in the art will recognize that salinity levels may vary depending on the desired effects of a given product, protocol, or individual characteristics of a user of the product. For linear hydrocarbon, alkane carbon number (ACN) is applied. The EACN is estimated based on the optimum salinity obtained in the inventors' formulation studies. The higher the optimum salinity, the more the hydrophobicity or EACN of the oil. The effect of alcohol or additives is noted by f(A), σ is a function of the type of the surfactant, α is a constant, and T is the temperature of the system. However, in this study, alcohol is not included and the temperature of the system is constant.
The EACN of squalene is 24 and isopropyl myristate (IPM) is 13. The EACN for squalane is expected to be close to the value for squalene (˜24).

[2] = Fish diagram phase study: surfactant concentration (C) and sebum fraction in oil (F) where Type IV microemulsion forms; conditions: co-oil with artificial sebum, WOR=1
Procedure: Methods: Phase behavior studies were performed using equal volume of water and oil (or sebum/co-oil mixtures), giving a water/oil ratio (WOR) equal to one. Preliminary studies were conducted to determine preferred formulations and salinity. […] In another non-limiting aspect, a preferred salinity (S*) for this composition was 0.5% NaCl. As noted throughout this document and contemplated by the inventors, these concentrations can be varied. Additionally, the ingredients can also vary. For example, the surfactants, hydrophobic and hydrophilic linkers, co-oils, and hydrotropes that are discussed throughout this document and known to those of ordinary skill in the art can be used with the present invention. Stock solutions of AOT, hexylglucocide, and sorbitan monooleate at the selected weight ratio were prepared at different total surfactant/linker concentrations ranging from 14.19% to 56.06% wt. The phase studies were carried out in 16×125 mm flat-bottomed tubes; 2.5 mL surfactant solution was added, followed by the addition of co-oil, then sebum oil. The total volume of co-oil and sebum oil required is equivalent to the amount of water present in the 2.5 mL surfactant solution; this is to keep WOR equal to one. The fraction of sebum oil in the oil mixtures is varied from zero (100% vol. co-oil) to one (100% vol. sebum oil). The prepared samples were gently shaken once a day for 3 days and left to equilibrate at room temperature for 2 weeks. Phase diagrams (fish diagrams) were constructed by plotting the total surfactant/linker concentration as a function of the sebum fraction in oil. The microemulsion phase (Type I, II, III, and IV) were obtained by visual observation. The effect of salinity (0.5%, 1.5%, and 3% wt. NaCl) and co-oil on the phase behavior was investigated. The fish tail is observed in the high concentration regime whereas the fish body appears in the low concentration regime. A surfactant concentration 14.19% wt was studied. As discussed throughout this document, however, the surfactant concentration can be varied. At lower surfactant concentrations, slow phase separation kinetics made it difficult to map out the three phase region. The surfactant concentration and the sebum fraction of oil at which the body and tail of the fish meet are denoted by “C” and “F”, respectively. The concentration C for this system, approximately, is 25% wt. surfactant concentration at the fraction F of 0.4, as summarized in Table 4.

[3] = Optimum salinity (S*) of co-oil/sebum oil mixtures in phase behavior studies with the AOT/sorbitan monooleate/hexylglucocide system; conditions: NaCl
Procedure: Methods: Phase behavior studies were performed using equal volume of water and oil (or sebum/co-oil mixtures), giving a water/oil ratio (WOR) equal to one. Preliminary studies were conducted to determine preferred formulations and salinity. […] In another non-limiting aspect, a preferred salinity (S*) for this composition was 0.5% NaCl. As noted throughout this document and contemplated by the inventors, these concentrations can be varied. Additionally, the ingredients can also vary. For example, the surfactants, hydrophobic and hydrophilic linkers, co-oils, and hydrotropes that are discussed throughout this document and known to those of ordinary skill in the art can be used with the present invention.
Stock solutions of AOT, hexylglucocide, and sorbitan monooleate at the selected weight ratio were prepared at different total surfactant/linker concentrations ranging from 14.19% to 56.06% wt. The phase studies were carried out in 16×125 mm flat-bottomed tubes; 2.5 mL surfactant solution was added, followed by the addition of co-oil, then sebum oil. The total volume of co-oil and sebum oil required is equivalent to the amount of water present in the 2.5 mL surfactant solution; this is to keep WOR equal to one. The fraction of sebum oil in the oil mixtures is varied from zero (100% vol. co-oil) to one (100% vol. sebum oil). The prepared samples were gently shaken once a day for 3 days and left to equilibrate at room temperature for 2 weeks. Phase diagrams (fish diagrams) were constructed by plotting the total surfactant/linker concentration as a function of the sebum fraction in oil. The microemulsion phase (Type I, II, III, and IV) were obtained by visual observation. The effect of salinity (0.5%, 1.5%, and 3% wt. NaCl) and co-oil on the phase behavior was investigated.
as §1

[4] = oil mixture 20% co-oil / 80% sebum (vol.)
[5] = oil mixture 40% co-oil / 60% sebum
[6] = oil mixture 60% co-oil / 40% sebum
[7] = oil mixture 80% co-oil / 20% sebum

Row | SMILES | EACN [1] | EACN ([1]; listed as Ethyllaurate (EL)) | Concentration (C) of surfactant at which Type IV microemulsion forms ([2]; [NaCl] 0.50%) [% wt.] | sebum fraction in oil (F) at which Type IV microemulsion forms ([2]; [NaCl] 0.50%) | Concentration (C) of surfactant at which Type IV microemulsion forms ([2]; [NaCl] 1.50%) [% wt.] | sebum fraction in oil (F) at which Type IV microemulsion forms ([2]; [NaCl] 1.50%) | S* (optimum salinity) ([3]; 100% co-oil / 0% sebum) | S* (optimum salinity) [3, 4] | S* (optimum salinity) [3, 5] [%] | S* (optimum salinity) [3, 6] [%] | S* (optimum salinity) [3, 7] | S* (optimum salinity) ([3]; oil mixture 20% co-oil / 80% sebum (vol.), listed as Isopropyl Myristate (IPM)) [%] | Concentration (C) of surfactant at which Type IV microemulsion forms ([2]; [NaCl] 3.00%) [% wt.] | sebum fraction in oil (F) at which Type IV microemulsion forms ([2]; [NaCl] 3.00%) | sebum fraction in oil (F) at which Type IV microemulsion forms ([2]; [NaCl] 0.50%, listed as squalene)
1 | CCCCCCCCCCCC(=O)OCC [EL, ethyl laurate] | < 13 | <13 | 25 | 0.4 | 38 | 0.02 | 1-1.5% | <0.5% | <0.5 | <0.5 | 0.5-0.7% | – | – | – | –
2 | CCCCCCCCCCCCCC(=O)OC(C)C [IPM, isopropyl myristate] | 13 | – | 25 | 0.5 | 38 | 0.175 | 3.5% | less than 0.5% | 0.5 | 0.8 | 1.5% | <0.5 | – | – | –
3 | CC(C)CCCC(C)CCCC(C)CCCCC(C)CCCC(C)CCCC(C)C (centres unmarked) [Squalane, 2,6,10,15,19,23-Hexamethyltetracosane] | – | – | 25 | 0.35 | 35 | 0.2 | – | – | – | – | – | – | 42 | 0.15 | –
4 | CC(C)=CCC/C(C)=C/CC/C(C)=C/CC/C=C(\C)CC/C=C(\C)CCC=C(C)C [Squalene] | 24 | – | ~25 | 0.45 | – | – | – | – | – | – | – | – | – | – | 0.4

Reference: patent publication US20060165739A1, “Alcohol-free microemulsion composition” (Mary Kay Inc., priority 2005, published 2006)
